The numbers were not newly measured in publication PMC5729432, “A Phase 1 study of ARQ 087, an oral pan-FGFR inhibitor in patients with advanced solid tumours” (British Journal of Cancer, 2017), which cites them from elsewhere.

Series [1] has as its system patients with advanced solid tumours. The arrangement: method as in Andre et al, 2013b; Saka et al, 2017. The following applies: ref Andre et al, 2013b; Saka et al, 2017.
A further series has as its system patients. Also noted: method as in Nogova et al, 2017. As to conditions: at the RP2D; ref Nogova et al, 2017.
The test system of series [2] is patients with advanced solid tumors. The arrangement: method as in Tabernero et al, 2015. The following applies: ref Tabernero et al, 2015.

SMILES strings stand for the structures.

Take `COc1cc(CCc2cc(NC(=O)c3ccc(N4CC(C)NC(C)C4)cc3)n[nH]2)cc(OC)c1` (stereo not shown) [AZD3547]: in series [1], the “common treatment-related AEs” value is “fatigue, mucositis, nausea, CSR, and hyperphosphataemia”.
As to `CCN1CCN(c2ccc(Nc3cc(N(C)C(=O)Nc4c(Cl)c(OC)cc(OC)c4Cl)ncn3)cc2)CC1` [BGJ398], in the series on patients, the “patients requiring dose adjustments or interruptions for hyperphosphataemia” value was 50%.
Consider `COc1cc(OC)cc(N(CCNC(C)C)c2ccc3ncc(-c4cnn(C)c4)nc3c2)c1` [JNJ-42756493], for which, in series [2], the AE asthenia is 55%, the AE constipation is listed as 34%, the AE decreased appetite is 32% and the AE dry mouth is recorded as 45%. In series [2], the AE hyperphosphataemia is recorded as 65%, the AE nail toxicity is 35%, the “dose interruptions for hyperphosphataemia” value is recorded as 31% and the “dose modifications for hyperphosphataemia” value is recorded as 8%.
